Data as given in patent publication US20030224942A1, “Alkylamino-1,3,5-triazines, processes for their preparation and their use as herbicides and plant growth regulators” (priority 2001, published 2003).

Assays:
[1] = test system: Chenopodium spp., Papaver spp., Polygonum spp., Veronica spp. or Viola spp.; assay: Post-emergence effect on weeds (greenhouse pot test, visual scoring); assay type: in vivo, monocotyledonous and dicotyledonous weeds; settings: treated at three-leaf stage; visual scoring after about 3 to 4 weeks; application rate of 0.5 kg and less of active substance per hectare
[2] = test system: Cyperus spp., Echinochloa spp., Digitaria spp., Sagitaria spp. and Scirpus spp.; assay: Action on harmful plants in rice (paddy rice conditions, visual scoring); assay type: in vivo, typical rice weeds (gramineous and broad-leaved); settings: applied into the dammed water, visual scoring about three weeks after application
Excerpt: Transplanted and sown rice and also typical rice weeds (gramineous and broad-leaved) are cultivated in closed plastic pots in a greenhouse to the three-leaf stage (Echinochloa crus-galli 1.5-leaf) under paddy rice conditions (dammed height of water: 2-3 cm). This is followed by treatment with the compounds according to the invention. […] After this treatment, the test plants are set up in a greenhouse under optimum growth conditions and are maintained in this way throughout the test period.

Row | SMILES | herbicidal activity post-emergence against harmful plants [1] | herbicidal activity against harmful plants which are typical for rice crops [2]
1 | CCc1nc(N)nc(NCc2cccc(C3CC3)c2)n1 [Product P6.1603] | very good herbicidal activity | very good herbicidal activity
2 | CCc1nc(N)nc(NCc2ccc(C3CC3)cc2)n1 [Product P6.1604] | very good herbicidal activity | very good herbicidal activity
3 | CCc1nc(N)nc(NC(C)c2ccc(F)c(C(F)=C(F)F)c2)n1 (stereo not drawn) [Product P7.5] | very good herbicidal activity | very good herbicidal activity
4 | CCc1nc(N)nc(NC(C)c2cc(F)c(C(F)=C(F)F)c(F)c2)n1 (stereo not drawn) [Product P7.49] | very good herbicidal activity | very good herbicidal activity
5 | C#Cc1cc(C(C)Nc2nc(N)nc(CC)n2)ccc1F (stereo not drawn) [Product P7.309] | very good herbicidal activity | very good herbicidal activity
6 | C#Cc1ccc(C(C)Nc2nc(N)nc(CC)n2)cc1C (stereo not drawn) [Product P7.335] | very good herbicidal activity | very good herbicidal activity
7 | C#Cc1c(C)cc(C(C)Nc2nc(N)nc(CC)n2)cc1C (stereo not drawn) [Product P7.348] | very good herbicidal activity | very good herbicidal activity
8 | C#Cc1cc(C#C)cc(C(C)Nc2nc(N)nc(CC)n2)c1 (stereo not drawn) [Product P7.369] | very good herbicidal activity | very good herbicidal activity
9 | CC#Cc1cc(C(C)Nc2nc(N)nc(CC)n2)ccc1F (stereo not drawn) [Product P7.384] | very good herbicidal activity | very good herbicidal activity
10 | CC#Cc1c(F)cc(C(C)Nc2nc(N)nc(CC)n2)cc1F (stereo not drawn) [Product P7.428] | very good herbicidal activity | very good herbicidal activity
11 | C=C=Cc1c(F)cc(C(C)Nc2nc(N)nc(CC)n2)cc1F (stereo not drawn) [Product P7.656] | very good herbicidal activity | very good herbicidal activity
12 | CCc1nc(N)nc(NC(C)c2ccc(F)c(C#CC(C)O)c2)n1 (stereo not drawn) [Product P7.840] | very good herbicidal activity | very good herbicidal activity
13 | CCc1nc(N)nc(NC(C)c2cc(F)c(C3CC3)c(F)c2)n1 (stereo not drawn) [Product P7.960] | very good herbicidal activity | very good herbicidal activity
14 | CCc1nc(N)nc(NC(C)c2cccc(C(F)=C(F)F)c2)n1 (stereo not drawn) [Product P7.1567] | very good herbicidal activity | very good herbicidal activity
15 | CCc1nc(N)nc(NC(C)c2ccc(C(F)=C(F)F)cc2)n1 (stereo not drawn) [Product P7.1568] | very good herbicidal activity | very good herbicidal activity
16 | C#Cc1cccc(C(C)Nc2nc(N)nc(CC)n2)c1 (stereo not drawn) [Product P7.1579] | very good herbicidal activity | very good herbicidal activity
17 | C#Cc1ccc(C(C)Nc2nc(N)nc(CC)n2)cc1 (stereo not drawn) [Product P7.1580] | very good herbicidal activity | very good herbicidal activity
18 | CC#Cc1cccc(C(C)Nc2nc(N)nc(CC)n2)c1 (stereo not drawn) [Product P7.1582] | very good herbicidal activity | very good herbicidal activity
19 | CC#Cc1ccc(C(C)Nc2nc(N)nc(CC)n2)cc1 (stereo not drawn) [Product P7.1583] | very good herbicidal activity | very good herbicidal activity
20 | CCc1nc(N)nc(NC(C)c2cccc(C3CC3)c2)n1 (stereo not drawn) [Product P7.1603] | very good herbicidal activity | very good herbicidal activity
21 | CCc1nc(N)nc(NC(C)c2ccc(C3CC3)cc2)n1 (stereo not drawn) [Product P7.1604] | very good herbicidal activity | very good herbicidal activity

Row | SMILES | herbicidal activity post-emergence against harmful plants [1] | herbicidal activity against harmful plants which are typical for rice crops [2]
22 | C#Cc1ccc(C(C)Nc2nc(N)nc(CC)n2)cc1F (stereo not drawn) [Product P7.1620] | very good herbicidal activity | very good herbicidal activity
23 | C#Cc1cc(C(Nc2nc(N)nc(CC)n2)C2CC2)ccc1F (stereo not drawn) [Product P9.309] | very good herbicidal activity | very good herbicidal activity
24 | C#Cc1c(F)cc(C(Nc2nc(N)nc(CC)n2)C2CC2)cc1F (stereo not drawn) [Product P9.352] | very good herbicidal activity | very good herbicidal activity
25 | CC#Cc1cc(C(Nc2nc(N)nc(CC)n2)C2CC2)ccc1F (stereo not drawn) [Product P9.384] | very good herbicidal activity | very good herbicidal activity
26 | CC#Cc1c(F)cc(C(Nc2nc(N)nc(CC)n2)C2CC2)cc1F (stereo not drawn) [Product P9.428] | very good herbicidal activity | very good herbicidal activity
27 | CCc1nc(N)nc(NC(c2cccc(C(F)=C(F)F)c2)C2CC2)n1 (stereo not drawn) [Product P9.1567] | very good herbicidal activity | very good herbicidal activity
28 | CCc1nc(N)nc(NC(c2ccc(C(F)=C(F)F)cc2)C2CC2)n1 (stereo not drawn) [Product P9.1568] | very good herbicidal activity | very good herbicidal activity
29 | C#Cc1cccc(C(Nc2nc(N)nc(CC)n2)C2CC2)c1 (stereo not drawn) [Product P9.1579] | very good herbicidal activity | very good herbicidal activity
30 | C#Cc1ccc(C(Nc2nc(N)nc(CC)n2)C2CC2)cc1 (stereo not drawn) [Product P9.1580] | very good herbicidal activity | very good herbicidal activity
31 | CC#Cc1cccc(C(Nc2nc(N)nc(CC)n2)C2CC2)c1 (stereo not drawn) [Product P9.1582] | very good herbicidal activity | very good herbicidal activity
32 | CC#Cc1ccc(C(Nc2nc(N)nc(CC)n2)C2CC2)cc1 (stereo not drawn) [Product P9.1583] | very good herbicidal activity | very good herbicidal activity
33 | CCc1nc(N)nc(NC(c2cccc(C3CC3)c2)C2CC2)n1 (stereo not drawn) [Product P9.1603] | very good herbicidal activity | very good herbicidal activity
34 | CCc1nc(N)nc(NC(c2ccc(C3CC3)cc2)C2CC2)n1 (stereo not drawn) [Product P9.1604] | very good herbicidal activity | very good herbicidal activity
35 | CC(C)c1nc(N)nc(NCc2cccc(C(F)=C(F)F)c2)n1 [Product P11.1567] | very good herbicidal activity | very good herbicidal activity
36 | CC(C)c1nc(N)nc(NCc2ccc(C(F)=C(F)F)cc2)n1 [Product P11.1568] | very good herbicidal activity | very good herbicidal activity
37 | C#Cc1cccc(CNc2nc(N)nc(C(C)C)n2)c1 [Product P11.1579] | very good herbicidal activity | very good herbicidal activity
38 | C#Cc1ccc(CNc2nc(N)nc(C(C)C)n2)cc1 [Product P11.1580] | very good herbicidal activity | very good herbicidal activity
39 | CC#Cc1cccc(CNc2nc(N)nc(C(C)C)n2)c1 [Product P11.1582] | very good herbicidal activity | very good herbicidal activity
40 | CC#Cc1ccc(CNc2nc(N)nc(C(C)C)n2)cc1 [Product P11.1583] | very good herbicidal activity | very good herbicidal activity
41 | CC(C)c1nc(N)nc(NCc2cccc(C3CC3)c2)n1 [Product P11.1603] | very good herbicidal activity | very good herbicidal activity
42 | CC(C)c1nc(N)nc(NCc2ccc(C3CC3)cc2)n1 [Product P11.1604] | very good herbicidal activity | very good herbicidal activity
